One data set has as its system mutant yeast strain sym1. The data set can be described thus: Cellular respiration (OROBOROS oxygraph) in sym1. The data set is classed as cell-based, Saccharomyces cerevisiae. To be noted: EBS 1 μM, compared to non-treated cells. The procedure:
Respiratory intensity corresponds to the amount of oxygen consumed with respect to time and the number of cells. It reflects the mitochondrial oxidative metabolism of the cells. The consumption of oxygen was measured using the OROBOROS oxygraph system. The cells were cultivated over 7-8 generations at 28° C. for 24 to 48 h in an Ethanol YPA medium supplemented by DMSO or EBS (1 μM). 10^7 cells were introduced into the oxygraph. The consumption of O2 was recorded with or without CCCP (maximum rate of oxygen consumption). The rate of O2 consumption was calculated on the basis of the linear part of the O2 consumption.
(§1) The experiments described in example 2 were implemented on the mutant yeast strain sym1.
(§2) The data are the averages ±SEM of at least three independent experiments. The significance of the variations between samples and the controls were estimated using the multi-factorial Anova: Tukey test.

Data set [1] relates to mutant yeast strains (cox2, sym1, fmc1, atp6, taz1, shy1, A29G). Nature of the data set: Halos test: respiratory growth of mutant yeast strains on non-fermentable solid medium. Type of data set: cell-based, Saccharomyces cerevisiae. Particulars: 30 and 90 nmoles on filter, 28° C. or 36° C., 4 to 5 days. The procedure: Each of the strains of the yeast Saccharomyces cerevisiae used in these examples contain different specific mutations modeling human mutations leading to mitochondrial illnesses. At varying degrees, all these mutant yeast strains have a growth defect when cultivated on a respiratory medium such as ethanol or glycerol at 28° C. or 36° C. (depending on the strain).
• fmc: MC6 MATa ade2-1 his3-11,15 trp1-1 leu2-3,112 ura3-I fmc1: :HIS3 [Δi ER OR] (Schwimmer, C. et al. (2005) J Biol Chem, 280, 30751-30759) for the first screening • MR14 MATa ade2-1 his3-11,15 trp1-1 leu2-3,112 ura3-1 CAN1 arg8::HIS3 ρ+ atp6-L173R or RKY20MATa ade2-1 his3-11,15 trp1-1 leu2-3,112 ura3-1 CAN1 arg8::HIS3 ρ+ atp6-L173P (Rak, M. et al. (2007) J Biol Chem, 282, 34039-34047) for the second screening • taz1Δ: this strain was produced by substituting the open reading framework of TAZ1 by that of TRP1 in the strain W303-1A (MATa ade2-1 ura3-1 his311, 15 trp1-1 leu2-3, 112 can1-100) (from Taffin de Tilques, M. et al. (2017) Dis Model Mech, 10, 439-450) • shy1-G137R: this mutant was produced in the strain CW252 containing the nuclear base of W303 and a mitochondrial gene lacking intron. […]

In data set [2] the test system is Cox2 protein in mutant yeast strain sym1. The data set can be described thus: Accumulation of Cox2 protein in sym1. Type of data set: cell-based, Saccharomyces cerevisiae. To be noted: EBS 1 μM, compared to non-treated cells. The protocol: Total protein extracts from the mutant yeast strain were analyzed by SDS-PAGE ([…] per well) using antibodies against the indicated proteins. The gels shown are representative of at least 3 experiments. Protein levels were quantified using the ImageJ software. The levels of Cox2 were normalized with respect to Ade13p and expressed with respect to the wild type (WT) strain.
as §1, §2

Data set [3] deals with myoblasts of a TAZ patient. Nature of the data set: Growth of myoblasts of TAZ patients (SRB, low glucose, 120 hours). Type of data set: cell-based, human. The protocol:
EBS was also tested for the ability thereof to restore cell growth of a line of myoblasts from patients, carriers of mutations in the TAZ gene. The rate of proliferation was measured in a medium with a weak concentration of glucose in 384 well micro-titration plates (1200 cells/wells at T0) using the Sulforhodamine B (SRB) staining protocol at 48, 72, 96 or 120 hours after placing the cells.

The next data set relates to HeLa KO FMC1. Nature of the data set: Proliferation of HeLa KO FMC1 cell line (SRB). The data set is classed as cell-based, human. Particulars: glucose 1 g/L or galactose; 96 hours; dose-dependent, wide range of concentrations (pM to μM). The protocol: The cell line HeLa KO FMC1, mimicking human illnesses related to a deficiency of ATP synthase (NARP, MILS syndromes), were generated by the CRISPR-Cas9 method. The cell line HeLa KO FMC1 was cultivated in a DMEM medium containing 4.5 g/L of glucose and 110 mg/l of pyruvate and 50 mg/l of uridine.
The rate of proliferation of this HeLa cell line in which the gene FMC1 was deleted was measured in a medium containing either a low concentration of glucose (1 g/L), or of galactose in micro-plates of 384 wells (4500 cells/cm^2 at T0) using the Sulforhodamine B (SRB) staining protocol 96 hours after seeding and treatment of the cells. The bars represent the average of 8 replicates coming from 3 independent experiments.

Data on 1 compound can be found in patent US20260000645A1, “USE OF EBSELEN OR ONE OF THE DERIVATIVES THEREOF TO TREAT MITOCHONDRIAL PATHOLOGIES OR DYSFUNCTIONS” (ASSOCIATION FRANCAISE CONTRE LES MYOPATHIES, priority 2022, published 2026).

Where only a bound is given, the exact number is not on record here.

Consider `O=c1c2ccccc2[se]n1-c1ccccc1` [ebselen, 2-phenyl-1,2-benzisoselenazol-3(2H)-one], for which, in the data set on mutant yeast strain sym1, the cell respiration result was “increased”. Further, the “respiratory growth (halo of improved growth)” value in data set [1] is recorded as “active on all the mutant strains of yeast tested in a dose dependent manner”. In data set [2], the “level of Cox2” value is recorded as “increased”. Further, the toxicity concentration in data set [3] was more than 78.3 µM. In data set [3] (vs DMSO), the concentration range with beneficial effects on growth, lower limit is not below 450 nM and the “concentration range with beneficial effects on growth, upper limit” value was not above 8.7 µM. Also, in the data set on HeLa KO FMC1, the “proliferation of model cells of an ATP synthase deficiency” value is “improves”.
